We go through 85 compounds from the Kinase Knowledgebase extract (Sharma et al. 2016).

Structures are written as SMILES.

The target in this test is PIK3CG (human) (UniProt P48736). The experiment in a line: Inhibition of PIK3CG Kinase Activity.
Chain of PIK3CG (human) (P48736 whole entry, looked up): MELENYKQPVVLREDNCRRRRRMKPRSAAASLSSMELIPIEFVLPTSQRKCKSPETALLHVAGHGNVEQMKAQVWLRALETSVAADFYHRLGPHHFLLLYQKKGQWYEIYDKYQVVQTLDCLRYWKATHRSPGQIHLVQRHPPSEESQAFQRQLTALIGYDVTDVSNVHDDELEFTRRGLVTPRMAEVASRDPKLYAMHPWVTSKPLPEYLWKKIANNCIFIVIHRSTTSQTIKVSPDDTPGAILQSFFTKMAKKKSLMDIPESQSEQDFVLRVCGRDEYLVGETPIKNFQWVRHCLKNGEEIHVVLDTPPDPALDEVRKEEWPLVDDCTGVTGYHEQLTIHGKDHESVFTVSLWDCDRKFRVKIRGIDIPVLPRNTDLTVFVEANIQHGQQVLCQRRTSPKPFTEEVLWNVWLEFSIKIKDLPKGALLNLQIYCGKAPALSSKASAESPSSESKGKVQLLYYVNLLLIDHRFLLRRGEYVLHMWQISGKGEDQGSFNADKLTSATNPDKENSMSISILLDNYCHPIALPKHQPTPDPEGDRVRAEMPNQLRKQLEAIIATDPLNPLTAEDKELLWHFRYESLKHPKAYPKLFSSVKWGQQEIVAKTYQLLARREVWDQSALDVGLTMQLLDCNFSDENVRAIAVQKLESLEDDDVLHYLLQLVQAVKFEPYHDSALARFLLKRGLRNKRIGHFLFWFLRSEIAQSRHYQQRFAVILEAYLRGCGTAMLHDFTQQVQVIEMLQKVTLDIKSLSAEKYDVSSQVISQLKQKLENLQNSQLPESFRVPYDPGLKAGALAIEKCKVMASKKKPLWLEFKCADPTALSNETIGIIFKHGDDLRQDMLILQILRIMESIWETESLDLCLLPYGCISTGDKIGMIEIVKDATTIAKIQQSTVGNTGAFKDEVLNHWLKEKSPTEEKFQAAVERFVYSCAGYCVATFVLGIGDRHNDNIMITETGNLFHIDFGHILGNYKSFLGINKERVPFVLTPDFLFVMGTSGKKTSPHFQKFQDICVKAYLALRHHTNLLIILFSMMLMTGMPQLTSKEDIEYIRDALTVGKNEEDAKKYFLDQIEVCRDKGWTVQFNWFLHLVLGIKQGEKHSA
One may read the Ki as a dissociation constant, usually derived from enzyme kinetics or from competition with a known ligand. The compound `CCOc1cncc(-c2cc(C)c3c(n2)C(C)N(c2cnn(CC(F)(F)F)c2)C3=O)c1` (stereo not given) registered a Ki below 100 nM.

As to `COc1cncc(-c2cc(C)c3c(n2)C(C)N(c2cn(C)cn2)C3=O)c1` (stereo not given), the inhibitory constant (Ki) was below 100 nM.

The compound `COc1cc(-c2ccc3c(c2)CN(c2ccn(CC#N)n2)C3=O)cnc1OC` registered an inhibition constant (Ki) below 100 nM.

Compound `COc1cc(-c2ccc3c(n2)CN(c2cnn(Cc4cccc5c4OCCCO5)c2)C3=O)cnc1OC` showed a Ki below 100 nM.

`CCn1ccc(N2C(=O)c3ccc(-c4cnc(OC)c(OC)c4)nc3C2C)n1` (stereo not given): the Ki is below 100 nM.

Take `CCn1cc(N2Cc3nc(-c4cnc(OC)c(OC(F)F)c4)ccc3C2=O)cn1`: the Ki is below 100 nM.

`CCCn1nc(N2Cc3nc(-c4cnc(OC)c(OC)c4)cc(C)c3C2=O)cc1COC` gave an inhibitory constant (Ki) below 100 nM.

`COc1cncc(-c2cc(C)c3c(n2)C2(CCNCC2)N(c2cnn(CC(F)(F)F)c2)C3=O)c1` gave an inhibitory constant (Ki) of 100 to 490 nM.

Turning to `COc1cc(-c2ccc3c(c2)CN(c2cccc(CC#N)c2)C3=O)cnc1OC`, the Ki is below 100 nM.

With `Cc1cc(-c2cncc(OCC(F)F)c2)nc2c1C(=O)N(c1ccn([C@H]3CCOC3)n1)C2`, the Ki is below 100 nM.

Turning to `Cc1cc(-c2cncc(OC(F)F)c2)nc2c1C(=O)N(c1cnn(C(C)(C)C#N)c1)C2`, the inhibition constant Ki was below 100 nM.

Compound `COc1cc(-c2cc(C)c3c(n2)C(CC2CCOC2)N(c2cnn(CC(F)(F)F)c2)C3=O)cnc1OC` (stereo not given) showed a Ki below 100 nM.

On to `CCc1cc(N2Cc3nc(-c4cnc(OC)c(OC)c4)ccc3C2=O)nn1C`, for which the Ki is below 100 nM.

For `COc1cc(-c2ccc3c(n2)C(N2CC(OC)C2)N(c2cnn(CC(F)(F)F)c2)C3=O)cnc1OC` (stereo not given), the Ki was 100 to 490 nM.

`COc1cc(-c2ccc3c(c2)CN(c2cncc(C)c2)C3=O)cnc1OC` yielded a Ki below 100 nM.

The compound `COc1cc(OC)cc(-c2cc(C)c3c(n2)CN(c2cnn(C(C)(C)C#N)c2)C3=O)c1` gave a Ki below 100 nM.

`COc1cc(-c2cc(C3CC3)c3c(n2)CN(c2cnn(CC(F)(F)F)c2)C3=O)cnc1OC` registered an inhibition constant Ki below 100 nM.

`COc1cc(-c2ccc3c(n2)CN(c2ccc(N4CCC(O)CC4)nc2)C3=O)cnc1OC` came in with an inhibition constant Ki below 100 nM.

In the case of `Cc1cc(-c2cncc(OCC(F)(F)F)c2)nc2c1C(=O)N(c1cnn(CC(F)(F)F)c1)[C@H]2C`, the Ki is below 100 nM.

`COc1cc(-c2cc(C)c3c(n2)CN(c2ccnc(C)c2)C3=O)cnc1OC` showed an inhibition constant (Ki) below 100 nM.

`CCOC(=O)C(F)(F)c1ccc(N2Cc3nc(-c4cnc(OC)c(OC)c4)ccc3C2=O)cn1` showed a Ki of 100 to 490 nM.

In turn, `CCOc1cncc(-c2cc(C)c3c(n2)[C@H](OC)N(c2cnn(CC(F)(F)F)c2)C3=O)c1` displayed an inhibition constant (Ki) below 100 nM.

For the compound `Cc1cc(-c2cncc(C(=O)N3CCC[C@@H]3C)c2)nc2c1C(=O)N(c1cnn(CC(F)(F)F)c1)C2(C)C`, the Ki lay in the range of 100 to 490 nM.

In the case of `COc1cc(-c2ccc3c(n2)CN(c2ccc(OCC4OCCO4)nc2)C3=O)cnc1OC`, the inhibition constant (Ki) is below 100 nM.

`Cc1cc(-c2cncc(OC(F)F)c2)nc2c1C(=O)N(c1cn[nH]c1)C2(C)C` displayed a Ki below 100 nM.

In turn, `COc1cc(-c2cc(C)c3c(n2)CN(c2cnn(CC(F)(F)F)c2)C3=O)cnc1OC` showed an inhibition constant (Ki) below 100 nM.

For `CCc1cc(N2Cc3nc(-c4cnc(OC)c(OC)c4)cc(C)c3C2=O)nn1C`, the Ki is below 100 nM.

Take `CCOc1ncc(-c2cc(C)c3c(n2)C2(CCOCC2)N(c2cnn(CC(F)(F)F)c2)C3=O)cc1OC`: the inhibition constant Ki is below 100 nM.

In turn, `Cc1cc(-c2ccc(F)c(O)c2)nc2c1C(=O)N(c1cnn(CC(F)(F)F)c1)C2` returned an inhibition constant (Ki) below 100 nM.

Regarding `COc1cncc(-c2cc(C)c3c(n2)C(C)(C)N(c2cnn(CC(F)F)c2)C3=O)c1`, the inhibition constant (Ki) is below 100 nM.

As for `CCn1cc(N2Cc3nc(-c4cccc(OC)c4)cc(C)c3C2=O)cn1`, the Ki is below 100 nM.

`COc1cc(-c2ccc3c(n2)[C@@H](C)N(c2cnn(CC(C)(C)O)c2)C3=O)cnc1OC` returned a Ki below 100 nM.

The compound `CCO[C@]1(C)c2nc(-c3cnc(OC)c(OC)c3)cc(C)c2C(=O)N1c1cnn(CC(F)(F)F)c1` yielded a Ki below 100 nM.

`Cc1cc(-c2cncc(OC(F)F)c2)nc2c1C(=O)N(c1cnn(C)c1)C2` returned a Ki below 100 nM.

In turn, `COc1cncc(-c2cc(C)c3c(n2)[C@@H](C)N(c2ccn(C)n2)C3=O)c1` had an inhibition constant (Ki) below 100 nM.

`CCNC(=O)c1cc(-c2cc(C)c3c(n2)C(C)(C)N(c2cnn(CC(F)F)c2)C3=O)cnc1OC`: the Ki was below 100 nM.

With `CCc1cc(N2Cc3nc(-c4cncc(OC(F)F)c4)ccc3C2=O)nn1C[C@H](C)O`, the inhibitory constant (Ki) fell in the range of 100 to 490 nM.

In turn, `COc1cc(-c2ccc3c(n2)C(C)N(c2ccc(N4CCC(O)C4)nc2)C3=O)cnc1OC` (stereo not given) displayed a Ki of 100 to 490 nM.

`CCc1cc(-c2cnc(OC)c(OC)c2)nc2c1C(=O)N(c1cnn(CC(F)(F)F)c1)C2` showed a Ki below 100 nM.

In turn, `Cc1cc(-c2cncc(OCC(F)(F)F)c2)nc2c1C(=O)N(c1cnn(CC(F)(F)F)c1)[C@@H]2C` yielded a Ki below 100 nM.

On to `COCn1cc(N2Cc3cc(-c4cnc(OC)c(OC)c4)ccc3C2=O)cn1`, for which the inhibition constant (Ki) is below 100 nM.

`COc1cc(-c2cc(C)c3c(n2)[C@H](OC)N(c2cnn(CC(F)(F)F)c2)C3=O)cnc1OC` returned an inhibition constant Ki below 100 nM.

For the compound `COc1cc(-c2ccc3c(n2)C(C)N(c2ccnc(C(C)(C)C#N)c2)C3=O)cnc1OC` (stereo not given), the Ki fell in the range of 100 to 490 nM.

`COc1ncc(-c2cc(C)c3c(n2)C(C)(C)N(c2cnn(CC(F)(F)F)c2)C3=O)cc1C(=O)NC1CC1` came in with a Ki below 100 nM.

In turn, `CCCCn1cc(N2Cc3cc(-c4cnc(OC)c(OC)c4)ccc3C2=O)cn1` showed an inhibition constant Ki of 100 to 490 nM.

Take `COc1cc(OC)c(-c2cc(C)c3c(n2)CN(c2cnn(CC(F)(F)F)c2)C3=O)cn1`: the inhibition constant Ki was below 100 nM.

`COCc1cc(N2Cc3nc(-c4cnc(OC)c(OC)c4)ccc3C2=O)n[nH]1`: the Ki was below 100 nM.

The compound `COc1cc(-c2ccc3c(c2)CN(c2cncc(C#N)c2)C3=O)cnc1OC` had a Ki of 100 to 490 nM.

The compound `COc1cc(-c2cc(C)c3c(c2)CN(c2cnn([C@@H](CO)C(F)(F)F)c2)C3=O)cnc1OC` came in with a Ki below 100 nM.

As to `COc1cncc(-c2cc(C)c3c(n2)[C@]2(CCOC2)N(c2cnn(CC(F)(F)F)c2)C3=O)c1`, the Ki is below 100 nM.

Turning to `CCn1ncc(N2Cc3cc(-c4cnc(OC)c(OC)c4)ccc3C2=O)n1`, the Ki was below 100 nM.

With `COc1cc(-c2cc(C)c3c(n2)CN(c2cnn(C(C)(C)C#N)c2)C3=O)cnc1O`, the inhibition constant (Ki) fell in the range of 100 to 490 nM.

The compound `C=C(F)Cn1cc(N2Cc3nc(-c4cncc(OC(F)F)c4)cc(C)c3C2=O)cn1` returned an inhibition constant Ki below 100 nM.

In turn, `CCOc1cncc(-c2cc(C)c3c(n2)[C@@H](OC)N(c2cnn(CC(F)(F)F)c2)C3=O)c1` displayed a Ki below 100 nM.

In turn, `CCOc1cncc(-c2cc(C)c3c(n2)CN(c2cnn(CC(F)F)c2)C3=O)c1` yielded a Ki below 100 nM.

`CCn1cc(N2Cc3cc(-c4ccc(OC)c(OC)n4)ccc3C2=O)cn1` had an inhibition constant Ki of 100 to 490 nM.

Compound `Cc1cc(-c2cncc(OC(F)F)c2)nc2c1C(=O)N(c1cn[nH]c1)[C@H]2C` showed an inhibition constant (Ki) below 100 nM.

`COc1cncc(-c2cc(C)c3c(n2)C(OC)N(c2cnn(CC(F)(F)F)c2)C3=O)c1` (stereo not given): the inhibition constant (Ki) is below 100 nM.

Compound `COCCNC(=O)c1cc(-c2cc(C)c3c(n2)C(C)(C)N(c2cnn(CC(F)(F)F)c2)C3=O)cnc1OC` returned an inhibition constant Ki below 100 nM.

Compound `COc1ncc(-c2cc(C)c3c(n2)CN(c2cnn(C)c2)C3=O)cc1OC(F)F` gave a Ki below 100 nM.

`CCN(C)C(=O)COc1ccc(N2Cc3nc(-c4cnc(OC)c(OC)c4)ccc3C2=O)cn1` registered a Ki of 100 to 490 nM.

The compound `COCCOCCOc1ncc(-c2cc(C)c3c(c2)CN(c2cnn(CC#N)c2)C3=O)cc1OC` displayed a Ki below 100 nM.

As for `CCn1ccc(N2Cc3nc(-c4cncc(OC(F)F)c4)cc(C)c3C2=O)n1`, the Ki is below 100 nM.

As for `CCn1cc(N2Cc3nc(-c4cnc(OC)c(OCC5CC5)c4)cc(C)c3C2=O)cn1`, the Ki is below 100 nM.

`COc1cc(-c2cc(C)c3c(n2)C2(CC2)N(c2cnn(CC(F)(F)F)c2)C3=O)cnc1OC(C)C` had an inhibition constant Ki below 100 nM.

Regarding `COc1cc(-c2cc(C)c3c(n2)C(OCC(F)(F)F)N(c2cnn(CC(F)(F)F)c2)C3=O)cnc1OC` (stereo not given), the inhibition constant (Ki) is below 100 nM.

In turn, `Cc1cc(-c2cncc(S(=O)(=O)N(C)C)c2)nc2c1C(=O)N(c1ccn([C@H]3CCOC3)n1)C2` yielded an inhibition constant (Ki) below 100 nM.

`CCOC1c2nc(-c3cnc(OC)c(OC)c3)ccc2C(=O)N1c1cnn(CC(F)(F)F)c1` (stereo not given) registered a Ki below 100 nM.

As to `CCn1cc(N2C(=O)c3ccc(-c4cnc(OC)c(OC)c4)nc3[C@@H]2C)cn1`, the inhibition constant Ki is below 100 nM.

Compound `COc1cncc(-c2cc(C)c3c(n2)[C@@H](OC)N(c2cnn(CC(F)(F)F)c2)C3=O)c1` returned an inhibition constant (Ki) below 100 nM.

As to `COc1ccc(-c2cc(C)c3c(n2)CN(c2cnn(CC#N)c2)C3=O)cc1OC`, the Ki is below 100 nM.

In turn, `COc1cncc(-c2cc(C)c3c(n2)CN(c2cnn(CC(F)F)c2)C3=O)c1` showed an inhibitory constant (Ki) below 100 nM.

`COc1ccc(-c2cc(C)c3c(n2)CN(c2cnn(C(C)(C)C#N)c2)C3=O)cc1OC` registered a Ki below 100 nM.

In turn, `CCOc1ncc(-c2cc(C)c3c(n2)CN(c2cc[nH]n2)C3=O)cc1OC` gave a Ki below 100 nM.

The compound `COc1cncc(-c2cc(C)c3c(n2)[C@H](OC)N(c2cnn(CC(F)(F)F)c2)C3=O)c1` came in with an inhibitory constant (Ki) below 100 nM.

`CCn1ccc(N2C(=O)c3ccc(-c4cnc(OC)c(OC)c4)nc3[C@H]2C)n1` returned an inhibition constant Ki below 100 nM.

`COc1cncc(-c2cc(C)c3c(n2)C2(CN(C(C)=O)C2)N(c2cnn(CC(F)(F)F)c2)C3=O)c1` gave a Ki below 100 nM.

Regarding `COc1cncc(-c2cc(C)c3c(n2)C(OCCO)N(c2cnn(CC(F)(F)F)c2)C3=O)c1` (stereo not given), the inhibition constant (Ki) was below 100 nM.

The compound `Cc1cc(-c2cccc(OC(F)(F)F)c2)nc2c1C(=O)N(c1cnn(CC(F)(F)F)c1)C2` returned a Ki below 100 nM.

`COc1cc(-c2ccc3c(c2)CN(c2cc(C)n(C)n2)C3=O)cnc1OC` returned a Ki of 100 to 490 nM.

With `COc1cc(-c2cc(C)c3c(n2)CN(c2ccc(C)s2)C3=O)cnc1OC`, the inhibitory constant (Ki) is below 100 nM.

As for `COc1cc(-c2ccc3c(n2)CN(c2cccc(CC#N)c2)C3=O)cnc1OC`, the inhibitory constant (Ki) is below 100 nM.

Take `COc1cncc(-c2cc(C)c3c(n2)CN(c2ccn(C[C@@H](C)F)n2)C3=O)c1`: the inhibitory constant (Ki) was below 100 nM.

`COc1cc(-c2ccc3c(n2)CN(c2cnn(CC(N)=O)c2)C3=O)cnc1OC` registered an inhibition constant Ki below 100 nM.

Compound `CCn1cnc(N2Cc3cc(-c4cnc(OC)c(OC)c4)ccc3C2=O)n1` gave a Ki below 100 nM.
